Source: US8729091B2, “4-phenoxy-nicotinamide or 4-phenoxy-pyrimidine-5-carboxamide compounds” (Hoffmann-La Roche Inc., priority 2010, dated 2014)

target: T1, human GPBAR1 receptor (Homo sapiens, UniProt Q8TDU6); experiment: functional cAMP assay in CHO-dhfr(minus) cells expressing human GPBAR1 receptors; assay type: cell-based; settings: cAMP increase (TR-FRET) in CHO-dhfr(minus) cells expressing human GPBAR1; compounds incubated 30 min at 30° C.
T1 construct: expressed in transfected cells
T1 sequence (Q8TDU6 1-330): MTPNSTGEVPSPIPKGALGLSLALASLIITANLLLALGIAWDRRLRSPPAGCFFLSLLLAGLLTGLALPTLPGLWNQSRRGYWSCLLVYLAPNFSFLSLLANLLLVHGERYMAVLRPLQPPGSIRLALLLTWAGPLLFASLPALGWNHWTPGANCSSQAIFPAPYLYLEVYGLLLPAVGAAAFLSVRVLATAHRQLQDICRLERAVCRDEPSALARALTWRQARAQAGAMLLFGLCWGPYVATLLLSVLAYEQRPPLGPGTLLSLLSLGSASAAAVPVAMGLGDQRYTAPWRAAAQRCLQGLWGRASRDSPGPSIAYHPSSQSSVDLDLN
Procedure: The final clone was verified by DNA sequence analysis. The plasmid was transfected into CHO cells deficient in dihydrofolate reductase activity (CHO-dhfr−) using Lipofectamine plus (Invitrogen). Clones were isolated in limited dilution conditions and identified by activities in the cAMP assay using lithocholic acid as agonist.
The growth medium was exchanged with Krebs Ringer Bicarbonate buffer with 1 mM IBMX and incubated at 30° C. for 30 min. Compounds were added to a final assay volume of 100 μl and incubated for 30 min at 30° C. […] The time-resolved energy transfer is measured by a TRF reader (Evotec Technologies GmbH, Hamburg Germany), equipped with a ND:YAG laser as excitation source.
EC50 values were determined using Activity Base analysis (ID Business Solution, Limited). […] Specificity for GPBAR1 was tested in non-transfected CHO cells in the same assay as above.

SMILES	EC50
CCOC(=O)C1CC1CN1CCN(C(=O)c2cnccc2Oc2cc(Cl)ccc2Cl)c2ccccc21 (stereo not drawn) [Example 5, 2-{4-[4-(2,5-Dichloro-phenoxy)-pyridine-3-carbonyl]-3,4-dihydro-2H-quinoxalin-1-ylmethyl}-cyclopropanecarboxylic acid ethyl ester]	1800 nM
CCOC(=O)c1sc(NC(=O)c2cc(Cl)c(Oc3ccncc3C(=O)N3CCN(C4CC4)c4ccccc43)cc2Cl)nc1C [Example 45, 2-{2,5-Dichloro-4-[3-(4-cyclopropyl-3,4-dihydro-2H-quinoxaline-1-carbonyl)-pyridin-4-yloxy]-benzoylamino}-4-methyl-thiazole-5-carboxylic acid ethyl ester]	600 nM
COc1cc(F)c(F)cc1N(C)C(=O)c1cnccc1Oc1cc(Cl)ccc1Cl [Example 19, 4-(2,5-Dichloro-phenoxy)-N-(4,5-difluoro-2-methoxy-phenyl)-N-methyl-nicotinamide]	100 nM
CS(=O)(=O)N1CCN(C(=O)c2cnccc2Oc2cc(Cl)ccc2Cl)c2ccccc21 [Example 7, [4-(2,5-Dichloro-phenoxy)-pyridin-3-yl]-(4-methanesulfonyl-3,4-dihydro-2H-quinoxalin-1-yl)-methanone]	300 nM
O=C(Nc1nncs1)c1cc(Cl)c(Oc2ccncc2C(=O)N2CCN(C3CC3)c3ccccc32)cc1Cl [Example 48, 2,5-Dichloro-4-[3-(4-cyclopropyl-3,4-dihydro-2H-quinoxaline-1-carbonyl)-pyridin-4-yloxy]-N-[1,3,4]thiadiazol-2-yl-benzamide]	200 nM
O=C(O)CCCNC(=O)c1cc(Cl)c(Oc2ccncc2C(=O)N2CCN(C3CC3)c3ccccc32)cc1Cl [Example 40, 4-{2,5-Dichloro-4-[3-(4-cyclopropyl-3,4-dihydro-2H-quinoxaline-1-carbonyl)-pyridin-4-yloxy]-benzoylamino}-butyric acid]	200 nM
CN(C(=O)c1cnccc1Oc1cc(Cl)ccc1Cl)c1cccc2c1NCCC2 [Example 24, 4-(2,5-Dichloro-phenoxy)-N-methyl-N-(1,2,3,4-tetrahydro-quinolin-8-yl)-nicotinamide]	100 nM
COC(=O)c1ccc(NC(=O)c2cc(Cl)c(Oc3ccncc3C(=O)N3CCN(C4CC4)c4ccccc43)cc2Cl)cc1 [Example 43, 4-{2,5-Dichloro-4-[3-(4-cyclopropyl-3,4-dihydro-2H-quinoxaline-1-carbonyl)-pyridin-4-yloxy]-benzoylamino}-benzoic acid methyl ester]	100 nM
Cc1cc(Oc2cc(Cl)ccc2Cl)c(C(=O)N2CCN(C3CC3)c3ccccc32)c(Cl)n1 [Example 73, [2-Chloro-4-(2,5-dichloro-phenoxy)-6-methyl-pyridin-3-yl]-(4-cyclopropyl-3,4-dihydro-2H-quinoxalin-1-yl)-methanone]	50 nM
O=C(O)CNC(=O)c1cc(Cl)c(Oc2ccncc2C(=O)N2CCN(C3CC3)c3ccccc32)cc1Cl [Example 30, {2,5-Dichloro-4-[3-(4-cyclopropyl-3,4-dihydro-2H-quinoxaline-1-carbonyl)-pyridin-4-yloxy]-benzoylamino}-acetic acid]	400 nM
COC(=O)CNC(=O)c1cc(Cl)c(Oc2cc(C)ncc2C(=O)N2CCN(C3CC3)c3ccccc32)cc1Cl [Example 69, {2,5-Dichloro-4-[5-(4-cyclopropyl-3,4-dihydro-2H-quinoxaline-1-carbonyl)-2-methyl-pyridin-4-yloxy]-benzoylamino}-acetic acid methyl ester]	40 nM
COC(=O)CN(C)C(=O)c1cc(Cl)c(Oc2ccncc2C(=O)N2CCN(C3CC3)c3ccccc32)cc1Cl [Example 31, ({2,5-Dichloro-4-[3-(4-cyclopropyl-3,4-dihydro-2H-quinoxaline-1-carbonyl)-pyridin-4-yloxy]-benzoyl}-methyl-amino)-acetic acid methyl ester]	100 nM
O=C(Nc1nnn[nH]1)c1cc(Cl)c(Oc2ccncc2C(=O)N2CCN(C3CC3)c3ccccc32)cc1Cl [Example 38, 2,5-Dichloro-4-[3-(4-cyclopropyl-3,4-dihydro-2H-quinoxaline-1-carbonyl)-pyridin-4-yloxy]-N-(1H-tetrazol-5-yl)-benzamide]	40 nM
CCOC(=O)C(C)(C)Oc1cc(Cl)c(Oc2ccncc2C(=O)N2CCN(C3CC3)c3ccccc32)cc1Cl [Example 60, 2-{2,5-Dichloro-4-[3-(4-cyclopropyl-3,4-dihydro-2H-quinoxaline-1-carbonyl)-pyridin-4-yloxy]-phenoxy}-2-methyl-propionic acid ethyl ester]	200 nM
N#Cc1cc(Cl)c(Oc2ccncc2C(=O)N2CCN(C3CC3)c3ccccc32)cc1Cl [Example 56, 2,5-Dichloro-4-[3-(4-cyclopropyl-3,4-dihydro-2H-quinoxaline-1-carbonyl)-pyridin-4-yloxy]-benzonitrile]	3 nM
